# Results as given in publication PMC8751734 (Cell Chemical Biology, 2022).
# Key:
# [1] = tested on: PL^pro; settings: ref Shin et al., 2020 (GRL-0617); Klemm et al., 2020 (rac5c); cited from earlier work
# [2] = Pharmacokinetics study of ACF in CD-1 mice; type: in vivo
# [3] = tested on: SARS-CoV-2; assay: Activity of ACF components against SARS-CoV-2 in vitro; type: cell-based
# [4] = tested on: SARS-CoV-2; type: cell-based
# [5] = tested on: SARS-CoV-2; type: cell-based; remark: listed apart in the source
# [6] = tested on: SARS-CoV-2; type: cell-based; remark: listed apart in the source
# [7] = tested on: SARS-CoV-2; settings: mouse, in vivo
structure (smiles),measurement,setting,value
COc1cc(CNC(=O)C2CCN(C(C)c3cccc4ccccc34)CC2)ccn1 (racemic) [rac5c],reported activity,[1],active at the micromolar range
Cc1ccc(N)cc1C(=O)N[C@H](C)c1cccc2ccccc12 [GRL-0617],reported activity,[1],active at the micromolar range
"Nc1ccc2cc3ccc(N)cc3nc2c1 [PF, 3,6-diaminoacridine]",levels / exposure in lungs,[2]; IV 15 mg/kg and PO 100 mg/kg of commercial ACF,very high
same,oral bioavailability,[2]; components of commercial ACF,much higher bioavailability
same,activity against SARS-CoV-2 in vitro,[3],active
CCC(CC)COC(=O)[C@H](C)N[P@](=O)(OC[C@H]1O[C@@](C#N)(c2ccc3c(N)ncnn23)[C@H](O)[C@@H]1O)Oc1ccccc1 [remdesivir],elimination of SARS-CoV-2 (confocal microscopy),[4],nearly complete elimination
same,virus yields in HAE cultures compared with PBS/untreated control,[5],significantly inhibited virus yields
same,inhibition of SARS-CoV-2 replication (confocal microscopy),[6],inferior compared with 500 nM ACF
same,adverse effects in mice,[7],No adverse effects were observed
same,decrease of viral loads in the brain,[7],2–3 orders of magnitude
